The text below walks through data of ChEMBL document CHEMBL4665919, “Novel Tricyclic Pyroglutamide Derivatives as Potent RORγt Inverse Agonists Identified using a Virtual Screening Approach” (ACS Med Chem Lett, 2020).

Series [1] can be described thus: AUC in BALB/c mouse at 2 mg/kg, iv measured upto 72 hrs. Type of series: ADME, organism-based. Further details: route intravenous, dose 2 mg/kg, time <=72. Particulars: in vivo.
A short description of series [2]: Clearance in BALB/c mouse at 2 mg/kg, iv. Type of series: ADME, organism-based. Particulars: in vivo.
The next series concerns the target Cytochrome P450 2C19 (Homo sapiens, UniProt P33261). The experiment in a line: Inhibition of CYP2C19 (unknown origin). In kind it is ADME.
Series [3] is described as follows: Cmax in BALB/c mouse at 4 mg/kg, po. In kind it is ADME, organism-based. On the set-up: route oral, dose 4 mg/kg. Particulars: in vivo.
Series [4] in a line: Half life in BALB/c mouse at 2 mg/kg, iv. Particulars: in vivo. In kind it is ADME, organism-based.
Series [5] is described as follows: Permeability across apical to basolateral side in human Caco2 cells. Type of series: ADME, cell-based. The note with it: Caco-2, read-out: permeability. (In general: Caco-2 monolayers are a common model of the intestinal barrier.)
Series [6] in a line: Kinetic solubility of compound in acetate buffer at pH 6.5. In kind it is physicochemical. Particulars: read-out: Kinetic_solubility.
Series [7] concerns the target T1, Nuclear receptor ROR-beta (Homo sapiens, UniProt Q92753).
T1 sequence (Q92753 whole entry): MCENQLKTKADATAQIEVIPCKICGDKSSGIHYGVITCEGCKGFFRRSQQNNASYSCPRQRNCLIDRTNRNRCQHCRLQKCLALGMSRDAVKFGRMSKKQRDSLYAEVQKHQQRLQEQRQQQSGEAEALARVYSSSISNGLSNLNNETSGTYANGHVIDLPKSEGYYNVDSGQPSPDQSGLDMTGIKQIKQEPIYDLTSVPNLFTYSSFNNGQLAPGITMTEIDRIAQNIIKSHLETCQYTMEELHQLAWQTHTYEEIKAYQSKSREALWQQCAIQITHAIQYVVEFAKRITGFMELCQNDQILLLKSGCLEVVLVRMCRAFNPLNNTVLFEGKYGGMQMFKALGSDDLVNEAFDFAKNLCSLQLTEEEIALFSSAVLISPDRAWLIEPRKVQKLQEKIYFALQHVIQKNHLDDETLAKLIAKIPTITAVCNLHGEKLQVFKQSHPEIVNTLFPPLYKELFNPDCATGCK
Put plainly: Inverse agonist activity at Gal4-fused RORbeta (unknown origin).

The target of another series is Cytochrome P450 2C9 (Homo sapiens, UniProt P11712). Put plainly: Inhibition of CYP2C9 (unknown origin). Type of series: ADME.
Series [8] can be described thus: Protein binding in human. Type of series: ADME.
Series [9] has as its target T2, Nuclear receptor ROR-alpha (Homo sapiens, UniProt P35398).
T2 sequence (P35398 whole entry): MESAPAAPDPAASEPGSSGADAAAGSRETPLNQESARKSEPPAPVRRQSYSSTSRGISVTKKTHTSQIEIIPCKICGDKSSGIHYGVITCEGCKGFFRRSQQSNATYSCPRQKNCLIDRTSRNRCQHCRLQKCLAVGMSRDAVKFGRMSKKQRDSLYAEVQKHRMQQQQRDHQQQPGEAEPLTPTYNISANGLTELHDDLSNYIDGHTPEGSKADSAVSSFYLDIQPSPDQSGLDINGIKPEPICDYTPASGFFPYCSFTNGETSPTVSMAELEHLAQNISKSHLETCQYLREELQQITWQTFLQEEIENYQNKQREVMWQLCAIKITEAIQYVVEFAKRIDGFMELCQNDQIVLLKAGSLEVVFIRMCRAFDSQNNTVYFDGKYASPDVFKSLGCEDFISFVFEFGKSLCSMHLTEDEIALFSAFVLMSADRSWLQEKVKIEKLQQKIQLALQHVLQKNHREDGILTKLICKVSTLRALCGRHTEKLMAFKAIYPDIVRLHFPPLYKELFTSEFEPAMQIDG
The experiment in a line: Inverse agonist activity at Gal4-fused RORalpha (unknown origin).

The nature of series [10]: AUC in BALB/c mouse at 4 mg/kg, po. In kind it is ADME, organism-based. On the set-up: dose 4 mg/kg. The note with it: in vivo.
Another series deals with T3, Cytochrome P450 2C8 (Homo sapiens, UniProt P10632).
T3 sequence (P10632 whole entry): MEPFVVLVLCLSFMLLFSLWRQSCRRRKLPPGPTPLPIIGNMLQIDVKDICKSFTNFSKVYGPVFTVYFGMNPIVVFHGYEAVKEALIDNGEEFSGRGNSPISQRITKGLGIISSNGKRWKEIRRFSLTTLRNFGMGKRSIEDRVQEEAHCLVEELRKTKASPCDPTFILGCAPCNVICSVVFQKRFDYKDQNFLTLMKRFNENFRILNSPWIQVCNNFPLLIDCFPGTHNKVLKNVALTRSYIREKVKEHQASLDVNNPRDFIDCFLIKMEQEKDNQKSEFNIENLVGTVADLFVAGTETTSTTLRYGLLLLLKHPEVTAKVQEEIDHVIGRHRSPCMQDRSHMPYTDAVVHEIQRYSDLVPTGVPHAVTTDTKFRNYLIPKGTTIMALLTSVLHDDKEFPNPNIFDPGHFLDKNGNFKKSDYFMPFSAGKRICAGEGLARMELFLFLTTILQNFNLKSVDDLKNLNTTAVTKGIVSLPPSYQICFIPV
Put plainly: Inhibition of CYP2C8 (unknown origin). Type of series: ADME.

SMILES strings stand for the structures. Bounds are passed on as bounds.

Chain of Cytochrome P450 2C19 (P33261 whole entry): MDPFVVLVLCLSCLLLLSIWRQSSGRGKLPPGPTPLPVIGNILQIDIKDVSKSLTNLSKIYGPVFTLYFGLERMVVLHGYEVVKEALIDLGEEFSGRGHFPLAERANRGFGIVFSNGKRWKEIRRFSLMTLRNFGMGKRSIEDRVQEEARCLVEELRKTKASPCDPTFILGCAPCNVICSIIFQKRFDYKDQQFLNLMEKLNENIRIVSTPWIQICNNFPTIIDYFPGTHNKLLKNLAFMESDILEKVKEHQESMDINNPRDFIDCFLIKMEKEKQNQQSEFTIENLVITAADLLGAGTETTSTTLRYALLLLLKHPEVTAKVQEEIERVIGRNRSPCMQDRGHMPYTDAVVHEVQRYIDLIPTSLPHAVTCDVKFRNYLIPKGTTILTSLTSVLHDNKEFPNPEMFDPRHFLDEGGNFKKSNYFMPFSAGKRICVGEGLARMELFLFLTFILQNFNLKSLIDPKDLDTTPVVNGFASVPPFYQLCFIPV
Chain of Cytochrome P450 2C9 (P11712 whole entry): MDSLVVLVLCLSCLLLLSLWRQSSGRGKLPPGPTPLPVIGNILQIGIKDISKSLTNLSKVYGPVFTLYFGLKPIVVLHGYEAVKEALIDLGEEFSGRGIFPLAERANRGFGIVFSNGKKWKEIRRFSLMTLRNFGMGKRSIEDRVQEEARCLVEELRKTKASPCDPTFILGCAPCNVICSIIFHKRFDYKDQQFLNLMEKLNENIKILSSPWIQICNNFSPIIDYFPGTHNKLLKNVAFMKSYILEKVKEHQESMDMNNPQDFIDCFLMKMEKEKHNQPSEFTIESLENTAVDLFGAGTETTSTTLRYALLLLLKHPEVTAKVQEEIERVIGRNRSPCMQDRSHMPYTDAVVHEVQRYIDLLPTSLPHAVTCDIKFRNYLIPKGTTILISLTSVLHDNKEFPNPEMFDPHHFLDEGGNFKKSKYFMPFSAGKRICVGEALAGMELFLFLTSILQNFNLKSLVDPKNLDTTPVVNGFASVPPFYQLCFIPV

The term AUC denotes the area under the concentration-time curve, a measure of exposure. A low value points to less exposure. In general, clearance refers to the volume of plasma or blood freed of the substance per unit of time. Lower therefore signals inefficient removal. Usually IC50 stands for the concentration needed to halve the response being measured. Read a high IC50 as weaker potency in that assay. By Cmax is commonly meant the peak of the concentration-time curve. By half-life is commonly meant the time in which the quantity being followed falls by half. The term EC50 denotes the midpoint of the concentration-response curve. Read a low EC50 as higher potency in that assay. Broadly, the fraction unbound is the share of the substance not bound to proteins or other matrix. Consider `CC(C)(O)CN1C(=O)[C@H](F)C[C@H]1C(=O)N1CC[C@@]2(S(=O)(=O)c3ccc(F)cc3)c3ccc(C(F)(C(F)(F)F)C(F)(F)F)cc3CC[C@@H]12`, for which the AUC at 72 h in [1] amounted to 23 µM·h. Also, in series [2], the clearance is 2 mL/min/kg. The IC50 is greater than 20 µM against Cytochrome P450 2C19, 4.9 µM at Cytochrome P450 2C9 and greater than 20 µM at Cytochrome P450 2C8. This compound also yielded a Cmax in series [3] of 2200 nM. In series [4], this compound gave a half-life of 15 h. Further, in [5], the Papp A→B stood at 9.3 ×10⁻⁶ cm/s. Besides, the solubility kinetic in [6] was less than 1 µg/mL. Moreover, the EC50 in [7] is 8.4 µM; in series [9], greater than 10 µM. This compound also showed a fraction unbound in [8] of 0.025. In addition, the AUC in series [10] was determined as 44.4 µM·h.
